Laboratory results taken from ChEMBL document CHEMBL4130445, “TNF-α and IL-6 inhibitors: Conjugates of N-substituted indole and aminophenylmorpholin-3-one as anti-inflammatory agents” (Eur J Med Chem, 2017).
Active and inactive are the calls of the source. No cut-off for these calls is given here.

Legend:
[1] = Cytotoxicity in mouse BV2 cells assessed as cell viability at 10 uM incubated for 48 hrs by MTT assay (reference value: 100%); format: cell-based, BV-2; details: read-out: Activity
BV-2 [2] = assay: Inhibition of LPS-induced nitric oxide production in mouse BV2 cells assessed as nitric oxide level at 20 uM pre-incubated before LPS stimulation by Griess reagent based assay (reference value: 121.09%); format: functional; set-up: scale not given: the % may be the effect or the level left
Mus musculus [3] = species: Mus musculus; assay: Inhibition of LPS-induced NFkappaB nuclear translocation in mouse BV2 cells pre-incubated before LPS stimulation by immunostaining based confocal laser microscopy; format: cell-based
BV-2 [4] = assay: Inhibition of LPS-induced TNFalpha production in mouse BV2 cells assessed as TNFalpha level at 10 uM pre-incubated before LPS stimulation by ELISA (reference value: 142.71%); format: functional; set-up: scale not given: the % may be the effect or the level left
[5] = Cytotoxicity in mouse BV2 cells assessed as cell viability at 5 uM incubated for 48 hrs by MTT assay (reference value: 100%); format: cell-based, BV-2; details: read-out: Activity
BV-2 [6] = assay: Inhibition of LPS-induced TNFalpha production in mouse BV2 cells assessed as TNFalpha level at 20 uM pre-incubated before LPS stimulation by ELISA (reference value: 142.71%); format: functional; set-up: scale not given: the % may be the effect or the level left
BV-2 [7] = assay: Inhibition of LPS-induced MMP9 production production in mouse BV2 cells assessed as MMP9 protein level pre-incubated before LPS stimulation by gelatin zymography (reference value: 105.113%); format: functional; set-up: scale not given: the % may be the effect or the level left
[8] = target: T1, Prostaglandin G/H synthase 2 (Homo sapiens) (UniProt P35354); assay: Inhibition of COX2 (unknown origin) by immunoassay
T1 sequence (whole entry): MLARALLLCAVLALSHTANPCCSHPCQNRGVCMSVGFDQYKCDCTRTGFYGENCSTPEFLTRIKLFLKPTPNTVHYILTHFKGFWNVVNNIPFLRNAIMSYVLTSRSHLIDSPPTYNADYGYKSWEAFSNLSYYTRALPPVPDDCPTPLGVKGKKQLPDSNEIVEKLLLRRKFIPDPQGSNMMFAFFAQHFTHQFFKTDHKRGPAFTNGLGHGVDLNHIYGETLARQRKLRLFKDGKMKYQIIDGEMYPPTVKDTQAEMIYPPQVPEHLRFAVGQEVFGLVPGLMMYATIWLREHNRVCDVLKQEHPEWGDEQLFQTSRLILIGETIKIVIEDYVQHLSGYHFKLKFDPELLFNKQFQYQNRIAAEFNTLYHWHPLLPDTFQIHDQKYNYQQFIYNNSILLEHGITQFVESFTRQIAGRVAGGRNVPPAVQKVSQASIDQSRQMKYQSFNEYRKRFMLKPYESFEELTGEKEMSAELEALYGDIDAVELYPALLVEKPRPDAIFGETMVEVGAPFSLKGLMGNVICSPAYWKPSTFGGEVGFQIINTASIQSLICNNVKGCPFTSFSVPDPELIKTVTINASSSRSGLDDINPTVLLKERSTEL

[9] = Cytotoxicity in mouse BV2 cells assessed as cell viability at 60 uM incubated for 48 hrs by MTT assay (reference value: 100%); format: cell-based, BV-2; details: read-out: Activity
BV-2 [10] = assay: Inhibition of LPS-induced IL6 production in mouse BV2 cells assessed as IL6 level at 20 uM pre-incubated before LPS stimulation by ELISA (reference value: 146.75%); format: functional; set-up: scale not given: the % may be the effect or the level left
BV-2 [11] = assay: Inhibition of LPS-induced nitric oxide production in mouse BV2 cells assessed as nitric oxide level at 10 uM pre-incubated before LPS stimulation by Griess reagent based assay (reference value: 121.09%); format: functional; set-up: scale not given: the % may be the effect or the level left
BV-2 [12] = assay: Inhibition of LPS-induced IL6 production in mouse BV2 cells assessed as IL6 level at 10 uM pre-incubated before LPS stimulation by ELISA (reference value: 146.75%); format: functional; set-up: scale not given: the % may be the effect or the level left
BV-2 [13] = assay: Inhibition of LPS-induced IL6 production in mouse BV2 cells at 10 uM pre-incubated before LPS stimulation by ELISA; format: functional
BV-2 [14] = assay: Inhibition of LPS-induced IL6 production in mouse BV2 cells at 20 uM pre-incubated before LPS stimulation by ELISA; format: functional
[15] = Cytotoxicity in mouse BV2 cells assessed as cell viability at 80 uM incubated for 48 hrs by MTT assay (reference value: 100%); format: cell-based, BV-2; details: read-out: Activity
[16] = Cytotoxicity in mouse BV2 cells assessed as cell viability at 100 uM incubated for 48 hrs by MTT assay (reference value: 100%); format: cell-based, BV-2; details: read-out: Activity
BV-2 [17] = assay: Inhibition of LPS-induced MMP2 production production in mouse BV2 cells assessed as MMP2 protein level pre-incubated before LPS stimulation by gelatin zymography (reference value: 105.071%); format: functional; set-up: scale not given: the % may be the effect or the level left
BV-2 [18] = assay: Inhibition of LPS-induced TNFalpha production in mouse BV2 cells at 20 uM pre-incubated before LPS stimulation by ELISA; format: functional
BV-2 [19] = assay: Suppression of LPS-induced morphological changes in mouse BV2 cells at 10 uM pre-incubated before LPS stimulation by phase contrast microscopy; format: functional, cell-based
[20] = Cytotoxicity in mouse BV2 cells assessed as cell viability at 40 uM incubated for 48 hrs by MTT assay (reference value: 100%); format: cell-based, BV-2; details: read-out: Activity
[21] = Cytotoxicity in mouse BV2 cells assessed as cell viability at 15 uM incubated for 48 hrs by MTT assay (reference value: 100%); format: cell-based, BV-2; details: read-out: Activity
[22] = Cytotoxicity in mouse BV2 cells assessed as cell viability at 20 uM incubated for 48 hrs by MTT assay (reference value: 100%); format: cell-based, BV-2; details: read-out: Activity
[23] = target: Transcription factor Jun (Mus musculus) (UniProt P05627); assay: Inhibition of LPS-induced AP1 nuclear translocation in mouse BV2 cells pre-incubated before LPS stimulation by immunostaining based confocal laser microscopy; format: cell-based
Chain of Transcription factor Jun (Mus musculus) (P05627 whole entry): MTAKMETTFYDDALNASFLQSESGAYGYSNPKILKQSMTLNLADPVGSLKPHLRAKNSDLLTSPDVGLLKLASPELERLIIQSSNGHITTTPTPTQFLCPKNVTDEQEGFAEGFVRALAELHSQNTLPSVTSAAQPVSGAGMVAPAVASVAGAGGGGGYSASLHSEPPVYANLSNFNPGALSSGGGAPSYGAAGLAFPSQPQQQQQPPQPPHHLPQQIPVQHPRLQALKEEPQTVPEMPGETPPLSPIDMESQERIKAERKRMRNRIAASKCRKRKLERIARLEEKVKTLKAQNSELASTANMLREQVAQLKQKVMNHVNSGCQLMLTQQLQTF

[24] = Cytotoxicity in mouse BV2 cells assessed as cell viability at 0.5 uM incubated for 48 hrs by MTT assay (reference value: 100%); format: cell-based, BV-2; details: read-out: Activity
BV-2 [25] = assay: Suppression of LPS-induced morphological changes in mouse BV2 cells at 5 uM pre-incubated before LPS stimulation by phase contrast microscopy; format: functional, cell-based
BV-2 [26] = assay: Inhibition of LPS-induced TNFalpha production in mouse BV2 cells at 10 uM pre-incubated before LPS stimulation by ELISA; format: functional
BV-2 [27] = assay: Cytotoxicity in mouse BV2 cells assessed as reduction in cell viability incubated for 48 hrs by MTT assay; format: cell-based; details: BV-2, 48 h
[28] = Cytotoxicity in mouse BV2 cells assessed as cell viability at 1 uM incubated for 48 hrs by MTT assay (reference value: 100%); format: cell-based, BV-2; details: read-out: Activity
BV-2 [29] = assay: Inhibition of LPS-induced TNFalpha production in mouse BV2 cells at 60 uM pre-incubated before LPS stimulation by ELISA; format: functional
Mus musculus [30] = assay: Analgesic activity in Swiss albino mouse model of acetic acid induced writhing assessed as inhibition of pain response at 10 mg/kg, ip dosed 30 mins before acetic acid injection; format: functional
BV-2 [31] = assay: Inhibition of LPS-induced TNFalpha production in mouse BV2 cells at 100 uM pre-incubated before LPS stimulation by ELISA; format: functional
BV-2 [32] = assay: Suppression of LPS-induced morphological changes in mouse BV2 cells at 1 to 20 uM pre-incubated before LPS stimulation by phase contrast microscopy; format: functional, cell-based
BV-2 [33] = assay: Inhibition of LPS-induced MMP2 production production in mouse BV2 cells pre-incubated before LPS stimulation by gelatin zymography; format: functional, cell-based
BV-2 [34] = assay: Inhibition of LPS-induced MMP9 production production in mouse BV2 cells pre-incubated before LPS stimulation by gelatin zymography; format: functional, cell-based

Row | Structure (SMILES) | viability at 48 h, 10 µM [1] [%] | Activity (BV-2 [2]) [%] | Activity (BV-2 [4]) [%] | viability at 48 h, 5 µM [5] [%] | Activity (BV-2 [6]) [%] | inhibition [8] | viability at 48 h, 60 µM [9] [%] | Activity (BV-2 [10]) [%] | Activity (BV-2 [11]) [%] | Activity (BV-2 [12]) [%] | viability at 48 h, 80 µM [15] [%] | viability at 48 h, 100 µM [16] [%] | Activity (BV-2 [19]) | viability at 48 h, 40 µM [20] [%] | viability at 48 h, 15 µM [21] [%] | viability at 48 h, 20 µM [22] [%] | viability at 48 h, 0.5 µM [24] [%] | Activity (BV-2 [25]) | IC50 (BV-2 [27]) [µM] | viability at 48 h, 1 µM [28] [%] | further results
1 | Cc1ccc(S(=O)(=O)n2cc(/C=N\c3ccc(N4CCOCC4=O)cc3)c3ccccc32)cc1 | 86.4 | 108.2579 | 90.58 | 89.1 | 70.48 | inactive | 56 | 94.84 | 108.5973 | 101.2128 | 57.8 | 57.4 | Active | 58.1 | 71 | 56.7 | 90.9 | Active | > 100 | 92.1 | inhibition (Mus musculus [3]): Active; Activity (BV-2 [7]): 95.906%; inhibition at 10 µM (BV-2 [13]): 31%; inhibition at 20 µM (BV-2 [14]): 35.4%; Activity (BV-2 [17]): 96.245%; inhibition at 20 µM (BV-2 [18]): 50.6%; inhibition [23]: Active; inhibition at 10 µM (BV-2 [26]): 36.5%
2 | O=C1COCCN1c1ccc(/N=C\c2cn(C(=O)c3ccccc3)c3ccccc23)cc1 | 88.6 | 98.08 | 199.2439 | 87.3 | 122.9276 | inactive | 57.5 | 185.4729 | 97.74 | 258.2615 | 58.4 | 52.9 | Active | 72.6 | 86.6 | 85.1 | 104 | Active | > 100 | 109 | 
3 | NC(=O)N1C(=O)/C(=C(\O)c2cccs2)c2cc(Cl)ccc21 [TENIDAP] |  |  |  |  |  |  |  |  |  |  |  |  |  |  |  |  |  |  |  |  | inhibition at 60 µM (BV-2 [29]): 67%
4 | O=C1COCCN1c1ccc(/N=C/c2cn(CCCn3cc(/C=N/c4ccc(N5CCOCC5=O)cc4)c4ccccc43)c3ccccc23)cc1 | 91.3 | 102.1493 | 90.26 | 94.1 | 80.53 | inactive | 72.4 | 111.7925 | 107.9186 | 126.5089 | 67.6 | 61.4 | Active | 79.8 | 93.1 | 95.3 | 99.9 | Active | > 100 | 97.1 | inhibition at 10 µM (BV-2 [13]): 13.8%; inhibition at 20 µM (BV-2 [14]): 23.8%; inhibition at 20 µM (BV-2 [18]): 43.6%; inhibition in vivo at 10 mg/kg (Mus musculus [30]): 65.5%; inhibition at 10 µM (BV-2 [26]): 36.8%
5 | COc1ccc2c(c1)c(CC(=O)O)c(C)n2C(=O)c1ccc(Cl)cc1 [INDOMETHACIN] |  |  |  |  |  |  |  |  |  |  |  |  |  |  |  |  |  |  |  |  | inhibition at 100 µM (BV-2 [31]): 50%
6 | O=C1COCCN1c1ccc(/N=C\c2cn(Cc3ccc(F)cc3)c3ccccc23)cc1 | 90 |  |  | 69.3 |  | inactive | 67.4 |  |  |  | 59 | 55.5 | inactive | 77.7 | 86.1 | 84.2 | 102 |  | > 100 | 87.8 | Activity (BV-2 [32]): inactive
7 | O=C1COCCN1c1ccc(/N=C\c2c[nH]c3ccccc23)cc1 | 98.5 | 104.8643 | 66.71 | 101 | 56.03 | inactive | 90.8 | 89.05 | 104.5249 | 91.1848 | 97.8 | 101 | Active | 105 | 100 | 104 | 104 | Active | > 100 | 105 | inhibition (Mus musculus [3]): Active; Activity (BV-2 [7]): 96.273%; inhibition at 10 µM (BV-2 [13]): 37.9%; inhibition at 20 µM (BV-2 [14]): 39.3%; Activity (BV-2 [17]): 94.929%; inhibition at 20 µM (BV-2 [18]): 60.8%; inhibition (BV-2 [33]): Active; inhibition (BV-2 [34]): Active; inhibition [23]: Active; inhibition at 10 µM (BV-2 [26]): 53.3%
8 | O=C1COCCN1c1ccc(/N=C\c2cn(Cc3ccccc3)c3ccccc23)cc1 | 91.3 | 103.8462 | 217.4584 | 84 | 183.8555 | inactive | 65 | 181.9833 | 129.638 | 265.8219 | 58.7 | 56.2 | Active | 69.5 | 95.7 | 87.8 | 86.6 | Active | > 100 | 89.3 | 
